These results are taken from ChEMBL document CHEMBL1201862, “PubChem BioAssay data set” (2004).

The structures appear in SMILES notation. Active and inactive are the calls of the source. Bounds are passed on as bounds.

One assay has as its target T1, Aminopeptidase N (Plasmodium falciparum FcB1/Columbia, UniProt O96935).
T1 sequence (O96935 whole entry): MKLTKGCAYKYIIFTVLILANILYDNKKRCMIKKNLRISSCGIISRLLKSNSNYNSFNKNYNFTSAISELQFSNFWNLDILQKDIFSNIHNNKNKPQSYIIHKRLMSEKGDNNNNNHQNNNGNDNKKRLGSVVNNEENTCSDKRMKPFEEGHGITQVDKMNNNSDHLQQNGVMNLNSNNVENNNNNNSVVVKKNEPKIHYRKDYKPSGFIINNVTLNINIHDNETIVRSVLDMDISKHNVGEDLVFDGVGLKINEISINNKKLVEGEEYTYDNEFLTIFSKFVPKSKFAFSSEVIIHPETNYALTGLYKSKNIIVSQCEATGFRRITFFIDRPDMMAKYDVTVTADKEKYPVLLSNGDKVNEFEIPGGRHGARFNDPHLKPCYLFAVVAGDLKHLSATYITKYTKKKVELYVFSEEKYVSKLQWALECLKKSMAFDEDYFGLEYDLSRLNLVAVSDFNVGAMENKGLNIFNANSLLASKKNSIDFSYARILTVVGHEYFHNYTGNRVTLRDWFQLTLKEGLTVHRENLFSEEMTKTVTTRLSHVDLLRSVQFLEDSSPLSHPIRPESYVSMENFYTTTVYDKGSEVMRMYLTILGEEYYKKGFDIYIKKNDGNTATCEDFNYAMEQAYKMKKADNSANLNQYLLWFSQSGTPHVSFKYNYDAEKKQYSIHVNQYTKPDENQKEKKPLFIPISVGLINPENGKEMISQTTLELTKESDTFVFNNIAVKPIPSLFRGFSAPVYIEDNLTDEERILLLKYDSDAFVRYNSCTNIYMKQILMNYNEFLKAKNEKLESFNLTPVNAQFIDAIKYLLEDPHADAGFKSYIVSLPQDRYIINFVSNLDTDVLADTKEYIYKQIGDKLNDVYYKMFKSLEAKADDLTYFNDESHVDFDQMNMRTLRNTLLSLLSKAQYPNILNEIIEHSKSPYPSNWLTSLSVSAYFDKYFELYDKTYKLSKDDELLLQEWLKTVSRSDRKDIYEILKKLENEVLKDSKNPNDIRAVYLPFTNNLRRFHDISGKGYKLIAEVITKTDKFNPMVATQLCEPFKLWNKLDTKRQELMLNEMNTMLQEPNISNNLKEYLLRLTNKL
Put plainly: malaria alanyl aminopeptidase activity blockers – biochemical, fluorogenic H-Leu-NHMec substrate, 1536-well (AID 1445). Details: species or system Plasmodium falciparum 3D7, 3D7.

The nature of assay [1]: viability of uninfected HEp-2 cells – cell-based, HTS, cytotoxicity control for RSV inhibitor project, dose response (AID 2410). The format is functional. To be noted: human respiratory syncytial virus.
A short description of assay [2]: cells. The format is functional, cell-based.
Assay [3] in a line: cells. The format is functional, cell-based. The source holds these as a separate data set.
The target of assay [4] is T2, RNA-binding protein pos-1 (Caenorhabditis elegans, UniProt G5EF15).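 Note: purified POS-1 fused to maltose binding protein made in E. coli; potency of compounds blocking POS-1 binding to fluorescent RNA.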
T2 sequence (G5EF15 whole entry): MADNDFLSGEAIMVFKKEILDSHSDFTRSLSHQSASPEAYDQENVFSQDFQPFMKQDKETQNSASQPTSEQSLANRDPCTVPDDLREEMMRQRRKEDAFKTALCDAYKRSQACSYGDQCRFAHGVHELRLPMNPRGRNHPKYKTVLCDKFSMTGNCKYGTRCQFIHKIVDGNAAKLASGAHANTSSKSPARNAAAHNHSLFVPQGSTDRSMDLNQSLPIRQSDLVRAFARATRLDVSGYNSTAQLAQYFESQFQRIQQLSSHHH
Put plainly: disruptors of C. elegans POS-1 RNA interaction – biochemical, fluorescence polarization, dose response (AID 1964). (In general: Polarisation of emitted light reports the rotation of a fluorescent probe.)

For assay [5], the target named is T3, Zinc finger protein mex-5 (Caenorhabditis elegans, UniProt Q9XUB2).
T3 sequence (Q9XUB2 whole entry): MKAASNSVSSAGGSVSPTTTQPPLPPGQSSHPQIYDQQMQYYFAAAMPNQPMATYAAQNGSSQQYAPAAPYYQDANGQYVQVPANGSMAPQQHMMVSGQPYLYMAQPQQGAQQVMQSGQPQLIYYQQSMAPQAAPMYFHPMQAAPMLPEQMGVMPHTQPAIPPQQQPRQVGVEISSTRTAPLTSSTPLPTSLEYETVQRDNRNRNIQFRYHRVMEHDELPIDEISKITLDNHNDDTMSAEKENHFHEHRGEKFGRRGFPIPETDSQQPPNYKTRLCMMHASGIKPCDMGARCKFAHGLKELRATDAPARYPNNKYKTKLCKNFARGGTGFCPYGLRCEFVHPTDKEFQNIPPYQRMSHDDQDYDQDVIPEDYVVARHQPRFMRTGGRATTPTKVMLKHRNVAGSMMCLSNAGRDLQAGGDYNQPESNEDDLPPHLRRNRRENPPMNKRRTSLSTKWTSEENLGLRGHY
Put plainly: potency of MEX-5 RNA-binding blockers – biochemical, C. elegans, fluorescence polarization, dose response (AID 1960).

Assay [6] addresses T4, Replicative DNA helicase DnaB (Mycobacterium tuberculosis, UniProt P9WMR3).
T4 sequence (P9WMR3 whole entry): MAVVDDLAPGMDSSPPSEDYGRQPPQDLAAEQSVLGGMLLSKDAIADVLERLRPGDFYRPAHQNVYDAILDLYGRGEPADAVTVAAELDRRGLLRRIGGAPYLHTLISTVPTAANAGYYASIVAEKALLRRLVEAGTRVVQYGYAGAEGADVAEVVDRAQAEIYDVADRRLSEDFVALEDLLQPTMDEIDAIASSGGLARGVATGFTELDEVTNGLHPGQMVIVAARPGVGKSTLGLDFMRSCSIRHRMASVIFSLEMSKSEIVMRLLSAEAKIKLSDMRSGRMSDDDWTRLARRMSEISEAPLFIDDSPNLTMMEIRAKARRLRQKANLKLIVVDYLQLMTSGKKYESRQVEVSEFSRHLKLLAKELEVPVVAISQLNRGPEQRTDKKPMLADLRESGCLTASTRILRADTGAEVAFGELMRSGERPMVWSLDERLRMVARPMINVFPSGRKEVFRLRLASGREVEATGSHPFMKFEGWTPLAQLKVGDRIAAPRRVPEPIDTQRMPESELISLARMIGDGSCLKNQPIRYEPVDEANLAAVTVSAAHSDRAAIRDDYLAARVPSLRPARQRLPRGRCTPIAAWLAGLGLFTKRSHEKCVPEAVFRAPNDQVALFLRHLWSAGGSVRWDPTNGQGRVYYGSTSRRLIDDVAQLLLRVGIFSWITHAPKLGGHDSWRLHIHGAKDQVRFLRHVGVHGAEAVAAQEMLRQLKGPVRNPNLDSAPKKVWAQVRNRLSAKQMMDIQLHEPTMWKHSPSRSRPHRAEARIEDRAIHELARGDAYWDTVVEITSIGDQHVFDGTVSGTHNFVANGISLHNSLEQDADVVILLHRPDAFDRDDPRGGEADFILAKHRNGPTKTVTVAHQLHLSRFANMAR
Put plainly: DnaB intein splicing inhibitors, dose response, biochemical, cell-free fluorescence (AID 449749). Format: functional.

A further assay has as its target T5, Protein RecA (Mycobacterium tuberculosis, UniProt P9WHJ3).
T5 sequence (P9WHJ3 whole entry): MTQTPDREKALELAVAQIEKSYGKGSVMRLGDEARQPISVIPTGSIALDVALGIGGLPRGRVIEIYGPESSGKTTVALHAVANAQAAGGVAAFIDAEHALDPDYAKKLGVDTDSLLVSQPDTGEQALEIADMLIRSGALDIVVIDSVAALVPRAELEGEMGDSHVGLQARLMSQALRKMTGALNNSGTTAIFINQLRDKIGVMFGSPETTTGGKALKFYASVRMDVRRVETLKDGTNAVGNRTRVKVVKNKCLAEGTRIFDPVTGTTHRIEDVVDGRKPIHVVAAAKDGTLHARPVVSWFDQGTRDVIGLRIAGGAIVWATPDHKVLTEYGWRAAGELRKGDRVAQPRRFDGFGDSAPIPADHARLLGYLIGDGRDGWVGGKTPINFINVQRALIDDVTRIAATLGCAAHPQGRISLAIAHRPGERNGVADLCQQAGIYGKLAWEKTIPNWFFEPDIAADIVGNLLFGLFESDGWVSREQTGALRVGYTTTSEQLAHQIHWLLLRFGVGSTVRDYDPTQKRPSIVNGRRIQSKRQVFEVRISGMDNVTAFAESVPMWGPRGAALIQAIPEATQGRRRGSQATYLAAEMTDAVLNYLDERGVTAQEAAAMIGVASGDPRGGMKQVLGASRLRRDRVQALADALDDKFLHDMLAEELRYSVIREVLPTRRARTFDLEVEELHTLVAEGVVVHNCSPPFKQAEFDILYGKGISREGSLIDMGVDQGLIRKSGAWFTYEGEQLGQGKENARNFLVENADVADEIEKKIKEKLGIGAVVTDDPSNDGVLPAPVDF
Put plainly: Fluorescence Cell-Free Homogeneous Dose Retest to Identify Inhibitors of RecA-Intein Splicing Activity. [Related pubchem assays (depositor defined):AID2097, AID2223, AID489010, AID492950]. The format is functional.

For the next assay, the target named is Cytochrome P450 2C19 (Homo sapiens, UniProt P33261). Put plainly: Cytochrome panel assay with activity outcomes. Panel member name: p450-cyp2c19 Compounds with AC50 equal or less than 10 uM are considered active. The format is functional. The note with it: read-out: AC50.
Chain of Cytochrome P450 2C19 (P33261 whole entry): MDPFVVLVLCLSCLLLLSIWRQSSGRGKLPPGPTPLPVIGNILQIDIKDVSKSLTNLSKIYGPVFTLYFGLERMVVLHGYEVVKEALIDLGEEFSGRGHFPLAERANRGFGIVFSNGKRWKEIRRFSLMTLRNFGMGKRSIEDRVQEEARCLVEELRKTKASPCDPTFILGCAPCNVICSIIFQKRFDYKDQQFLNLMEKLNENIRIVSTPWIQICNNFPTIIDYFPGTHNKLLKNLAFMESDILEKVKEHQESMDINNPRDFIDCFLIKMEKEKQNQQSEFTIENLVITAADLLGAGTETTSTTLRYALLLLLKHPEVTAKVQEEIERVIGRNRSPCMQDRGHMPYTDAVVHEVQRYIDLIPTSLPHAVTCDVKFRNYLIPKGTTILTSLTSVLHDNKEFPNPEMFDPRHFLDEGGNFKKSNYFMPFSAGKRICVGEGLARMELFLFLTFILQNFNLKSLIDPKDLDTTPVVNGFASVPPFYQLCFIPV
Another assay addresses Cytochrome P450 2C9 (Homo sapiens, UniProt P11712).
The test system of assay [7] is Streptococcus sp. 'group A'. Put plainly: Streptococcus pyogenes SK(-)GAS viability under kanamycin – luminescence, BacTiterGlo, confirmation, counter-screen for streptokinase expression inhibitor project, dose response (AID 1900). The format is functional, organism-based. (A counterscreen serves to expose hits that act by an unwanted route or on another target.)
Assay [8] concerns BJ. Put plainly: BJ-TERT fibroblast viability loss – cell-based, RAS-independent, luminescence, dose response (AID 1933). Format: functional. To be noted: Homo sapiens.
For assay [9], the system named is BJ. Put plainly: cells. The format is functional, cell-based. The note with it: Homo sapiens.
The subject of assay [10] is BJ. Put plainly: BJ-TERT-LT-ST fibroblast viability loss – cell-based, RAS-independent, luminescence, dose response (AID 1935).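 Note: BJ fibroblasts immortalized with TERT plus LT and ST oncogenes.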 The format is functional. To be noted: Homo sapiens.
The nature of assay [11]: DRD fibroblast viability loss – cell-based, non-viral oncogenic, luminescence, dose response (AID 1934). The note with it: Homo sapiens. Format: functional.
The next assay relates to Streptococcus. Put plainly: GAS UMAA2166 growth inhibition – luminescence, BacTiterGlo, counter-screen for streptokinase expression inhibitor project, dose response (AID 1915).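 Note: potency for reduction of bacterial viability or growth.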 Format: functional, organism-based.

In general, IC50 refers to the concentration that inhibits the measured activity by half. One may read the CC50 as the concentration giving 50% cytotoxicity. As usually defined, the EC50 is the concentration needed to bring the measured effect to its halfway point. One may read the AC50 as the midpoint of the concentration-response curve, whichever way the signal moves.

Chain of Cytochrome P450 2C9 (P11712 whole entry): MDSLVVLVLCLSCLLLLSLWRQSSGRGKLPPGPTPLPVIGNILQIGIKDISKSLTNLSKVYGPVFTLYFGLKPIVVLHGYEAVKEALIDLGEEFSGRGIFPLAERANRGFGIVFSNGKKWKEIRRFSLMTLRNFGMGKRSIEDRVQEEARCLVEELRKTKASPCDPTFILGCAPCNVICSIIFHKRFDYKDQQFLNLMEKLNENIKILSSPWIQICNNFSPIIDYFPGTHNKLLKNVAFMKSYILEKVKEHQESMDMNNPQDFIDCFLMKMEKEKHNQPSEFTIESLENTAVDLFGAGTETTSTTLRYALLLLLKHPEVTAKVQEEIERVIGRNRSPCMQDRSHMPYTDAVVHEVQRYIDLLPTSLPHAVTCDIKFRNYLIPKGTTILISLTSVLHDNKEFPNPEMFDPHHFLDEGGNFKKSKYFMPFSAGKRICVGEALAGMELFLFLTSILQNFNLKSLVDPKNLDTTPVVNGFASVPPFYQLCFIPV

As to `CCCOc1ccc(C(C)=O)cc1CSc1nc(O)cc(=O)[nH]1`, the IC50 at Aminopeptidase N was 109 µM (active).

On to `CCOC(=O)c1sc(Nc2cccc(Cl)c2)nc1C`, for which the CC50 in [1] is > 50 µM (active). In addition, the 50% effective concentration (EC50) in the assay “cells [2]” was > 350 µM (not active); in the assay “cells [3]”, 19.5 µM (active).

As for `Cc1cccc(S(=O)(=O)C(C#N)c2nc3ccccc3nc2N2CCOCC2)c1` (stereo not drawn), the EC50 in assay [4] was 163 µM (active); in assay [5] it was > 300 µM (not active).

Take `CCOC(=O)C1=C(Nc2ccccc2)S/C(=C\c2ccc(OCC(=O)O)c(OCC)c2)C1=O`: at Aminopeptidase N, the IC50 is 60.2 µM (active).

With `O=C(COc1ccccc1/C=C1\SC(=O)NC1=O)Nc1ccccc1`, the IC50 on Aminopeptidase N was 32.6 µM (active).

For `Cc1ccc(C(=O)NC(=S)NNS(=O)(=O)c2ccc(C)cc2)cc1`, the values for the EC50 in the assay “cells [2]”, in “cells [3]” and at Protein RecA were > 350 µM (not active), > 350 µM (not active) and 146 µM (active), respectively. Also, in assay [6], the AC50 was 58.9 µM (active).

In the case of `CCOC(=O)N1CCN(c2nc3ccccc3nc2C(C#N)S(=O)(=O)c2ccc(C)cc2)CC1` (stereo not drawn), the EC50 in assay [4] was > 300 µM (inconclusive); in [5], 170 µM (inconclusive).

In the case of `NS(=O)(=O)c1ccc(-c2cccc(/C=C3\SC(=O)NC3=O)c2)cc1`, the EC50 in assay [4] was 13 µM (active); in assay [5], 16.6 µM (active).

Consider `COc1ccc(OC)c(NC(=O)C2C3C=CC(C3)C2C(=O)NCc2cccnc2)c1` (stereo not drawn), for which, at Aminopeptidase N, the IC50 was 48.2 µM (active).

Regarding `COc1ccc(/C=C/C(O)=C2\C(=O)NC(=O)N(CCC3=CCCCC3)C2=O)cc1OC`, the EC50 is 6.09 µM (inconclusive) in assay [4] and > 300 µM (inconclusive) in assay [5].

On to `CN1C(=O)C(=Cc2ccc(N3CCCCC3)o2)C(=O)N(C)C1=S`, for which the EC50 in assay [4] and in [5] was > 300 µM (inconclusive) throughout. Further, the AC50 at Cytochrome P450 2C19 is 2.82 µM (inconclusive); on Cytochrome P450 2C9, 11.2 µM (inconclusive).

For the molecule `Cc1ccc(-n2nc(C)c(/C=N/NC(=O)c3cccc([N+](=O)[O-])c3)c2O)cc1C`, the EC50 is 2.02 µM (active) in [7]; 9.53 µM (active) in the assay on BJ [8]; 37 µM (active) in the assay with BJ [9]; 16 µM (active) in the assay on BJ [10]; 10 µM (active) in [11]; 6.18 µM (active) with Streptococcus.

Consider `Oc1cccc2cccnc12` [OXYQUINOLINE], for which the EC50 with BJ [8] was > 150 µM (not active); in the assay with BJ [9], 125 µM (active); in the assay on BJ [10], > 150 µM (not active); in assay [11], 17.9 µM (active).
